As usually defined, the bioavailability is the share of a dose that reaches the circulation, judged against a reference dose that is usually intravenous.

Results on four molecules are retold here after ChEMBL document CHEMBL4425174, “Design, synthesis and optimization of novel Alk5 (activin-like kinase 5) inhibitors” (Bioorg Med Chem Lett, 2016).

A short description of this data set: Oral bioavailability in rat. Format: ADME, organism-based. Conditions: in vivo.
Turning to `Fc1cc(F)c(-c2cc(Nc3ccncc3)c3cc[nH]c3n2)cc1Cl`, the bioavailability is 13%.

For `Fc1ccc(-c2cc(Nc3ccncc3)c3cc[nH]c3n2)c(F)c1`, the bioavailability was found to be 65%.

The molecule `C[C@H](O)CNC(=O)c1cnccc1Nc1cc(-c2cc(Cl)ccc2F)nc2[nH]ccc12` gave a bioavailability of 17%.

`Cc1cnc(-c2cc(Cl)ccc2F)cc1-n1c(=O)n(CC(N)=O)c2cnccc21` [TP-008] gave a bioavailability of 62%.
